Experimental findings from patent US20240246946A1, “MODULATORS OF TREX1” (Constellation Pharmaceuticals, Inc., priority 2021, published 2024) are described below.

In assay [1] the target is T1, human TREX2 (residues M44-A279) (Homo sapiens, UniProt Q9BQ50).
T1 construct: human TREX2 (residues M44-A279, expressed in E. coli); made in house; host or cells: E. coli
T1 sequence (Q9BQ50 44-279 isoform Q9BQ50-1): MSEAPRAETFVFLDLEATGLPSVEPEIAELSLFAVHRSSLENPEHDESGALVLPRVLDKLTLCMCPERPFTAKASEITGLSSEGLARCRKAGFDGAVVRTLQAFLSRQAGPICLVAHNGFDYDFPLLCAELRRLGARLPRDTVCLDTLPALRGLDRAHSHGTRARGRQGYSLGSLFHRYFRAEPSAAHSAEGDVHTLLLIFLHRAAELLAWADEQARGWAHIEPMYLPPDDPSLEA
As to the kind of experiment: hTREX2 Biochemical Assay (fluorescence, dsDNA substrate degradation). As to conditions: biochemical selectivity for hTREX1 vs hTREX2. The essentials: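 Fluorogenic dsDNA degradation read at 615 nm (570 nm excitation) after EDTA quench. Final 60 nM substrate, 50 pM His-Tev-tagged enzyme, 5 mM MgCl2, pH 7.4, 1.0% DMSO; 4 h compound–enzyme preincubation then 18 h reaction, both 25 °C; 10-point titration.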

The target in assay [2] is T2, full length human TREX1 (Homo sapiens, UniProt Q9NSU2).
T2 construct: N-terminally His-Tev tagged full length human TREX1; made in house; host or cells: E. coli
T2 sequence (Q9NSU2 1-314): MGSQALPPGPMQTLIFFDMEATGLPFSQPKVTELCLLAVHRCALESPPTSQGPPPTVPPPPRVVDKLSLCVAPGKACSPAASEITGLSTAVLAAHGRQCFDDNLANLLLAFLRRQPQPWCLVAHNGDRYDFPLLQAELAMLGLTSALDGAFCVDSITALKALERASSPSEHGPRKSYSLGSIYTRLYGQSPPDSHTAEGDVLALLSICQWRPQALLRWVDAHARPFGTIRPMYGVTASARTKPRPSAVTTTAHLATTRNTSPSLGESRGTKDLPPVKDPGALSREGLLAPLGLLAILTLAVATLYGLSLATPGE
As to the kind of experiment: hTREX1 Biochemical Assay (fluorescence, dsDNA substrate degradation). As to conditions: biochemical, read-out: hTREX1 IC50. In a few lines:
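Fluorescence rises as enzyme degrades a quenched TEX615-labelled dsDNA substrate (60 nM) in 50 mM Tris, 150 mM NaCl, 5 mM MgCl2, pH 7.4. Full-length His-Tev-tagged human TREX1, 4 pM, sits with compound 4 hours at 25° C before substrate; reaction 18 hours, stopped with EDTA.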

Assay [3] has as its target T3, full length mouse TREX1 (Mus musculus, UniProt Q91XB0).
T3 construct: N-terminally His-Tev tagged full length mouse TREX1; made in house; host or cells: E. coli
T3 sequence (Q91XB0 1-314): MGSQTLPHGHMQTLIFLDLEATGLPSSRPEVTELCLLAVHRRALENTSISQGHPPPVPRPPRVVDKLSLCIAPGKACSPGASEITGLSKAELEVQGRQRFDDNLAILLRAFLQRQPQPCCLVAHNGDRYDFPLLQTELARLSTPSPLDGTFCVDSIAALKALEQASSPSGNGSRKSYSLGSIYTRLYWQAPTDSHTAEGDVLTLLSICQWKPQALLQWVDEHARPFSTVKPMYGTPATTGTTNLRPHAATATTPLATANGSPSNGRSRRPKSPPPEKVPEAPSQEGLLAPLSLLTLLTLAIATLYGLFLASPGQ
As to the kind of experiment: mTREX1 Biochemical Assay (fluorescence, dsDNA substrate degradation). Particulars: biochemical, read-out: mTREX1 IC50. The essentials: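 Reaction run 18 h at 25° C. with 60 nM TEX615/quencher-labelled dsDNA and 6 pM mouse TREX1 in Tris buffer (pH 7.4, 5 mM MgCl2, 1.0% DMSO), enzyme having sat 4 h with compound across 10 concentrations. EDTA quench; substrate degradation measured as fluorescence increase.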

The target in assay [4] is T4, hTREX1 (Homo sapiens, UniProt Q9NSU2).
T4 construct: host or cells: HCT116 dual cells
T4 sequence (Q9NSU2 1-314): T2 sequence (Q9NSU2 1-314)
As to the kind of experiment: hTREX1 HCT116 Cell Assay (HCT116 dual cells, Lucia luciferase reporter of Type I interferon induction). In kind it is cell-based. As to conditions: TREX1i 4 h before pBR322/BstNI transfection, read after 48 h. In a few lines:
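Type I interferon induction read as secreted Lucia luciferase 48 h after transfecting pBR322/BstNI digest (1 ug/mL, 100 ng/well) into HCT116 dual reporter cells. Compound added 4 h before transfection at up to 0.1% DMSO; cells in DMEM/10% FBS/25 mM HEPES at 37 °C.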
(Reporter assays use an easily measured gene product as a stand-in for the process of interest.)

With `Cc1cnc(C(c2cc(F)ccc2Cl)C(C)c2nc(C(=O)Nc3cnoc3)c(O)c(=O)n2C)cn1` (single isomer, unassigned) [Example 117 D1E2], the “hTREX1 vs hTREX2 selectivity” value in assay [1] is “A (A = <25 fold selective for hTREX1)”. Also, the figures for the IC50 in assay [2], in assay [3] and in assay [4] were less than 0.001 µM, 0.001 to 0.01 µM and less than 0.01 µM, respectively.
Consider `COCCn1ncc(C(c2cc(F)ccc2Cl)C(C)c2nc(C(=O)Nc3cnoc3)c(O)c(=O)n2C)c1C` (single isomer, unassigned) [Example 108 D2E1], for which the “hTREX1 vs hTREX2 selectivity” value in assay [1] is recorded as “A (A = <25 fold selective for hTREX1)”. Besides, the values for the IC50 in assay [2], in assay [3] and in assay [4] were 0.001 to 0.01 µM, more than 0.01 µM and 0.01 to 0.1 µM, respectively.
The corresponding values for `Cn1cc(C(c2ccccc2C#N)C(c2nc(C(=O)Nc3cnoc3)c(O)c(=O)n2C)C(F)(F)F)cn1` (single isomer, unassigned) [Example 40 D1E2] are “B (B = 25 to 50-fold selective for hTREX1)”, less than 0.001 µM, 0.001 to 0.01 µM and more than 0.1 µM.
With `Cc1ccnn1C(c1ccccc1C#N)C(C)c1nc(C(=O)Nc2cnoc2)c(O)c(=O)n1C` (single isomer, unassigned) [Example 138 D1E1], the “hTREX1 vs hTREX2 selectivity” value in assay [1] is on record as “B (B = 25 to 50-fold selective for hTREX1)”. The IC50 (usually the midpoint of a concentration-inhibition curve) in assay [2] is less than 0.001 µM; in assay [3], 0.001 to 0.01 µM; in assay [4], 0.01 to 0.1 µM.
For `Cc1ccn(C(c2ccccc2C#N)C(C)c2nc(C(=O)Nc3cnoc3)c(O)c(=O)n2C)n1` (single isomer, unassigned) [Example 132 D1E2], the “hTREX1 vs hTREX2 selectivity” value in assay [1] is on record as “C (C = >50 fold selective for hTREX1)”. Also, the results for the IC50 in assay [2], in assay [3] and in assay [4] were less than 0.001 µM, 0.001 to 0.01 µM and 0.01 to 0.1 µM, respectively.
Taken in the same sequence, the figures for `Cc1cc(C(c2ccccc2C#N)C(C)c2nc(C(=O)Nc3cnoc3)c(O)c(=O)n2C)ccn1` (single isomer, unassigned) [Example 6 D1E2] were “B (B = 25 to 50-fold selective for hTREX1)”, 0.001 to 0.01 µM, more than 0.01 µM and more than 0.1 µM.
In the case of `CC(c1nc(C(=O)Nc2cnoc2)c(O)c(=O)n1C)C(c1cnn(CC(C)(C)O)c1)c1cc(F)ccc1Cl` (single isomer, unassigned) [Example 92 D1E1], the “hTREX1 vs hTREX2 selectivity” value in assay [1] was “A (A = <25 fold selective for hTREX1)”. Moreover, the IC50 in assay [2] was 0.001 to 0.01 µM; in assay [3], 0.001 to 0.01 µM; in assay [4], more than 0.1 µM.
On to `Cc1cnc(C)c(C(c2cc(F)ccc2C#N)C(C)c2nc(C(=O)Nc3cnoc3)c(O)c(=O)n2C)n1` (single isomer, unassigned) [Example 119 D2E1], for which the “hTREX1 vs hTREX2 selectivity” value in assay [1] is reported as “C (C = >50 fold selective for hTREX1)”. Besides, the IC50 was 0.001 to 0.01 µM in assay [2], more than 0.01 µM in assay [3] and more than 0.1 µM in assay [4].
With `Cc1cc(C)n(C(c2ccccc2C#N)C(C)c2nc(C(=O)Nc3cnoc3)c(O)c(=O)n2C)n1` (single isomer, unassigned) [Example 137 D1E1], in assay [1], the “hTREX1 vs hTREX2 selectivity” value is “B (B = 25 to 50-fold selective for hTREX1)”. In addition, the concentration for half-maximal inhibition (IC50) in assay [2] is less than 0.001 µM; in assay [3], 0.001 to 0.01 µM; in assay [4], less than 0.01 µM.
`CC(c1nc(C(=O)Nc2cnoc2)c(O)c(=O)n1C)C(c1cnn(CC(C)(C)O)c1)c1ccccc1Cl` (single isomer, unassigned) [Example 86 D1E1]: the “hTREX1 vs hTREX2 selectivity” value in assay [1] is “B (B = 25 to 50-fold selective for hTREX1)”. In addition, the IC50 in assay [2] was less than 0.001 µM; in assay [3], 0.001 to 0.01 µM; in assay [4] it was more than 0.1 µM.
The corresponding values for `CCn1cc(C(c2ccccc2Cl)C(C)c2nc(C(=O)Nc3cnoc3)c(O)c(=O)n2C)cn1` (single isomer, unassigned) [Example 85 D1E1] are “B (B = 25 to 50-fold selective for hTREX1)”, less than 0.001 µM, less than 0.001 µM and 0.01 to 0.1 µM.
Take `Cc1cnc(C)c(C(c2ccccc2Cl)C(C)c2nc(C(=O)Nc3cnoc3)c(O)c(=O)n2C)n1` (single isomer, unassigned) [Example 120 D2E2]: in assay [1], the “hTREX1 vs hTREX2 selectivity” value was “C (C = >50 fold selective for hTREX1)”. Further, the half-inhibitory concentration (IC50) is more than 0.01 µM in assay [2], more than 0.01 µM in assay [3] and more than 0.1 µM in assay [4].
On to `CC(c1nc(C(=O)Nc2cnoc2)c(O)c(=O)n1C)C(c1ccccc1C#N)c1cn(C)nc1C#N` (single isomer, unassigned) [Example 10 D2E1], for which the “hTREX1 vs hTREX2 selectivity” value in assay [1] is “C (C = >50 fold selective for hTREX1)”. Further, the values for the IC50 in assay [2], in assay [3] and in assay [4] were less than 0.001 µM, 0.001 to 0.01 µM and less than 0.01 µM, respectively.
Taken in the same sequence, the figures for `Cc1ccc(C(c2ccccc2C#N)C(C)c2nc(C(=O)Nc3cnoc3)c(O)c(=O)n2C)cn1` (single isomer, unassigned) [Example 5 D1E2] were “B (B = 25 to 50-fold selective for hTREX1)”, less than 0.001 µM, less than 0.001 µM and less than 0.01 µM.
Taken in the same sequence, the figures for `Cc1c(C(c2ccccc2C#N)C(C)c2nc(C(=O)Nc3cnoc3)c(O)c(=O)n2C)cnn1C` (single isomer, unassigned) [Example 4 D2E2] were “B (B = 25 to 50-fold selective for hTREX1)”, 0.001 to 0.01 µM, more than 0.01 µM and more than 0.1 µM.
